Measured values from ChEMBL document CHEMBL2203176, “Structure-based bioisosterism design, synthesis and biological evaluation of novel 1,2,4-triazin-6-ylthioacetamides as potent HIV-1 NNRTIs” (Bioorg Med Chem Lett, 2012).

What was measured:
[1] = Selectivity index, ratio of CC50 for human MT4 cells to EC50 for HIV2 ROD; assay type: toxicity, cell-based; settings: read-out: Ratio CC50/EC50
[2] = Selectivity index, ratio of CC50 for human MT4 cells to EC50 for HIV1 3B; assay type: toxicity, cell-based; settings: read-out: Ratio CC50/EC50
[3] = Cytotoxicity against human MT4 cells by MTT assay; assay type: cell-based
[4] = tested on: Human immunodeficiency virus 2; experiment: Antiviral activity against HIV2 ROD infected in human MT4 cells assessed as inhibition of virus-induced cytopathicity by MTT assay; assay type: functional, organism-based; settings: Human immunodeficiency virus 2, ISOLATE ROD
[5] = tested on: Human immunodeficiency virus 1; experiment: Antiviral activity against HIV1 3B infected in human MT4 cells assessed as inhibition of virus-induced cytopathicity by MTT assay; assay type: functional, organism-based; settings: Human immunodeficiency virus 1, 3B
[6] = Selectivity index, ratio of CC50 for human MT4 cells to EC50 for HIV1 RES056 harboring reverse transcriptase K103N/Y181C mutant; assay type: toxicity, cell-based; settings: read-out: Ratio CC50/EC50
[7] = tested on: Human immunodeficiency virus 1; experiment: Antiviral activity against HIV1 RES056 harboring reverse transcriptase K103N/Y181C mutant infected in human MT4 cells assessed as inhibition of virus-induced cytopathicity by MTT assay; assay type: functional, organism-based; settings: Human immunodeficiency virus 1, RES056, MT4

Structure (SMILES)	selectivity ratio [1]	selectivity ratio [2]	CC50 [3] [µM]	EC50 [4] [µM]	EC50 [5] [µM]	selectivity ratio [6]	EC50 [7] [µM]
O=C(CSc1nncnc1-c1cccc2ccccc12)Nc1ccc(Cl)cc1Cl	< 1	< 1	254	> 254	> 254	–	–
Cc1ccccc1NC(=O)CSc1nncnc1-c1cccc2ccccc12	< 1	194	158	> 158	0.828	< 1	> 158
COC(=O)c1ccc(NC(=O)CSc2nncnc2-c2cccc3ccccc23)c(Br)c1	< 1	2560	173	> 173	0.069	7	25
CCOC(=O)c1ccc(NC(=O)CSc2nncnc2-c2cccc3ccccc23)c(Br)c1	< 1	524	105	> 105	0.21	< 1	> 105
CCOC(=O)c1ccc(NC(=O)CSc2nncnc2-c2cccc3ccccc23)c(Cl)c1	< 1	729	150	> 150	0.205	< 1	> 150
O=C(CSc1nncnc1-c1cccc2ccccc12)Nc1ccc([N+](=O)[O-])cc1Cl	< 1	< 1	150	> 150	> 150	–	–
O=C(CSc1nncnc1-c1cccc2ccccc12)N1CCc2ccccc2C1	< 1	17	13	> 13	0.751	< 1	> 13
O=C(CSc1nncnc1-c1ccccc1Cl)Nc1cccnc1Cl	< 1	2240	167	> 167	0.074	7	23
O=C(CSc1nncnc1-c1ccccc1Cl)Nc1ccc(Cl)cc1Cl	< 1	190	51	> 51	0.258	< 1	> 51
Cc1ccccc1NC(=O)CSc1nncnc1-c1ccccc1Cl	< 1	465	142	> 142	0.297	< 1	> 142
COC(=O)c1ccc(NC(=O)CSc2nncnc2-c2ccccc2Cl)c(Br)c1	< 1	311	59	> 59	0.19	< 1	> 59
CCOC(=O)c1ccc(NC(=O)CSc2nncnc2-c2ccccc2Cl)c(Br)c1	< 1	302	69	> 69	0.236	< 1	> 69
Cc1cnc(NC(=O)CSc2nncnc2-c2ccccc2Cl)c(Br)c1	< 1	< 1	144	> 144	> 31	–	–
O=C(CSc1nncnc1-c1ccccc1Cl)Nc1ccccn1	< 1	51	172	> 123	3.3	< 1	> 123
COC(=O)c1sccc1NC(=O)CSc1nncnc1-c1ccccc1Cl	< 1	35	105	> 105	2.9	< 1	> 105
Cc1ccc2sc(NC(=O)CSc3nncnc3-c3ccccc3Cl)nc2c1	< 1	< 1	137	> 32	> 32	–	–
O=C(CSc1nncnc1-c1ccccc1Cl)c1ccc(Br)cc1Br	< 1	< 1	28	> 28	> 28	–	–
O=C(CSc1nncnc1-c1ccccc1Cl)c1ccc(Cl)c(Cl)c1	< 1	5	33	> 33	6.2	–	> 33
O=C(CSc1nncnc1-c1ccccc1Cl)N1CCCc2ccccc21	< 1	< 1	35	> 35	> 35	–	–
O=C(CSc1nncnc1-c1ccccc1Cl)N1CCc2ccccc2C1	> 1	≥ 52	≥ 38	> 38	0.731	< 1	≥ 43

Structure (SMILES)	selectivity ratio [1]	selectivity ratio [2]	CC50 [3] [µM]	EC50 [4] [µM]	EC50 [5] [µM]	selectivity ratio [6]	EC50 [7] [µM]
O=C(CSc1nncnc1-c1cccc2ccccc12)Nc1ccccc1	< 1	101	154	> 154	1.53	< 1	> 154
O=C(CSc1nncnc1-c1cccc2ccccc12)Nc1ccccc1Cl	< 1	470	63	> 63	0.135	< 1	> 63
O=C(CSc1nncnc1-c1cccc2ccccc12)Nc1ccccc1F	< 1	184	65	> 65	0.359	< 1	> 65
O=C(CSc1nncnc1-c1cccc2ccccc12)Nc1ccccc1Br	< 1	503	87	> 87	0.173	≤ 2	≥ 43
Cc1ccc(NC(=O)CSc2nncnc2-c2cccc3ccccc23)c(Br)c1	< 1	852	166	> 166	0.195	4	46
Cc1ccc(NC(=O)CSc2nncnc2-c2cccc3ccccc23)c([N+](=O)[O-])c1	< 1	3170	147	> 147	0.046	28	5.2
O=C(CSc1nncnc1-c1cccc2ccccc12)Nc1ccccc1[N+](=O)[O-]	< 1	3260	142	> 142	0.043	25	5.6
CC(=O)c1ccc(NC(=O)CSc2nncnc2-c2cccc3ccccc23)c(Br)c1	< 1	2680	133	> 133	0.051	31	4.3
O=C(CSc1nncnc1-c1cccc2ccccc12)Nc1cccnc1Cl	< 1	751	44	> 44	0.059	6	7
O=C(CSc1nncnc1-c1ccccc1Cl)Nc1ccccc1	< 1	296	127	> 127	0.42	< 1	> 127
O=C(CSc1nncnc1-c1ccccc1Cl)Nc1ccccc1Cl	< 1	–	–	> 90	–	≤ 2	≥ 55
O=C(CSc1nncnc1-c1ccccc1Cl)Nc1ccccc1F	< 1	471	98	> 98	0.21	< 1	> 98
O=C(CSc1nncnc1-c1ccccc1Cl)Nc1ccccc1Br	< 1	792	73	> 73	0.092	≤ 1	≥ 55
Cc1ccc(NC(=O)CSc2nncnc2-c2ccccc2Cl)c(Br)c1	< 1	253	45	> 45	0.178	≤ 1	≥ 42
CC(=O)c1ccc(NC(=O)CSc2nncnc2-c2ccccc2Cl)c(Br)c1	< 1	404	34	> 35	0.086	< 1	> 34
CC(C)Nc1cccnc1N1CCN(C(=O)c2cc3cc(NS(C)(=O)=O)ccc3[nH]2)CC1 [DELAVIRDINE]	–	–	> 36	–	0.032	< 1	> 36
O=C1Nc2ccc(Cl)cc2[C@@](C#CC2CC2)(C(F)(F)F)O1 [EFAVIRENZ]	–	–	> 6.3	–	–	–	–
Cc1ccnc2c1NC(=O)c1cccnc1N2C1CC1 [NEVIRAPINE]	–	–	> 15	–	–	–	11
Nc1ccn([C@H]2CC[C@@H](CO)O2)c(=O)n1 [ZALCITABINE]	> 74	68	> 95	1.3	1	–	–
Cc1cn([C@H]2C[C@H](N=[N+]=[N-])[C@@H](CO)O2)c(=O)[nH]c1=O [ZIDOVUDINE]	56900	8300	–	0.004	–	29600	0.009
